According to patent US9221783B2, “Phenylalkyl sulfamate compound and muscle relaxant composition comprising the same” (BIO-PHARM SOLUTIONS CO., LTD., priority 2012, dated 2015):

Tests used:
Type in all cases: in vivo
male mice (ICR) [1] = test: Muscle relaxation activity by grip strength test (forelimbs); details: intraperitoneal; for ED50: Mus musculus, ip; for Grip strength, percentage compared to the vehicle only (100%): dose 200 (unit not given)
Protocol: (§1) For testing, male mice (ICR) were purchased from ORIENT BIO INC. (Korea), divided into several groups with 6 mice in each group, and were adapted for 4-5 days. The mice having the weight ranging from 19 g to 26 g were employed for the test. The pharmacological effect of the test compounds on muscle relaxation was evaluated by Rotarod test, grip strength test, and muscular force (wire hang) test. All mice were adapted to the test environment at one hour before starting the tests. The pharmacological effects of all the test compounds were evaluated by administration through peritoneal cavity of the mice (10 ul/g, bw).
The test was conducted before and after administration of the compounds to evaluate the effects thereof. […] The mouse was made to grip the rod with its forelimbs, and its tail was pulled, where the force at which the mouse detached from the rod was recorded. The instrument indicated the force in grams. All of the mice were given 3 opportunities for test, and the 3 highest values among the test opportunities were selected and the mean value was used as the test result. […] Psychopharmacol. 110: 92-96’.
(§2) The obtained results are shown as mean±sem. The difference between the groups was statistically analyzed by ANOVA, and then, further examined by Dunnett's test or Bonferroni test. If p is less than 0.05, it was determined that the difference between the groups had statistical significance.

male mice (ICR) [2] = test: Muscle relaxation activity by wire hang (wire suspension) test; details: intraperitoneal; for ED50: Mus musculus, ip, ED50 vs vehicle only (100%); for Wire suspension, percentage compared to the vehicle only (100%): dose 100 (unit not given)
Protocol: as §1
This experimentation was conducted using a metal wire of 30 cm in length, which was suspended between two pillars at a height of about 40 cm from the bottom covered with a soft pad. […] Each mouse was made to grip the wire using two forelimbs, and the elapse time before the mouse fell off from the wire to the pad on the bottom was recorded in seconds. Each mouse was given 5 opportunities for this test at an interval of 2 minutes period. The highest 3 records among the test opportunities were selected and the mean value was used as the test result. This experimentation was conducted according to the method described in the reference, ‘Jacqueline N. Crawley (1999) Behavioral phenotyping of transgenic and knockout mice: experimental design and evaluation of general health, sensory functions, motor abilities, and specific behavioral tests. Brain Res. 835: 18-26’.
as §2
(§3) The results of muscle relaxation activity of the phenylalkyl sulfamate compounds measured in above Experimental Examples 1 to 43 are shown in following Table 2.

male mice (ICR) [3] = test: Muscle relaxation activity by residence time on a rotarod rotating at a fixed speed; details: intraperitoneal; for ED50: Mus musculus, ip, 15 rpm, max 10 min, ED50 vs vehicle only (100%), determined at 0.5 h (time of maximum effect)
Protocol: as §1
All the mice to be tested were preliminarily trained for 5 minutes on a rod rotating at the rate of 15 revolutions per a minute. The mice that could not remain on the rod without falling off therefrom for a minimum of 2 minutes were excluded from this testing. After the training, all the mice were allowed to rest for 45-60 minutes. Before the administration of the test compounds, the mice were subjected to a further training for one minute on the rod rotating under the same condition, where the mice falling off from the rod were excluded from this experimentation. […] In case a mouse stays on the rod until the test is finished, the time was recorded as 10 minutes. As test time for evaluation, a maximum of 10 minutes was applied. This experimentation was conducted according to the method described in the reference, ‘Yasuda et al. (2005) Antipyretic, analgesic and muscle relaxant activities of Pueraria isoflavonoids and their metabolites from Pueraria lobata Ohwi—a traditional Chinese drug. Biol. Pharm. Bull. 28: 1224-1228.
as §2, §3

[4] = ED50 = 50% of muscle relaxation activity compared to vehicle only (100%), determined at 0.5 h (time of maximum effect)
[5] = determined at 0.5 h (time of maximum effect)

Row | SMILES | ED50 (male mice (ICR) [1]; [4]) [mg/kg] | ED50 (male mice (ICR) [3]) [mg/kg] | Grip strength, percentage compared to the vehicle only (100%) (male mice (ICR) [1]) | also measured
1 | CC1(C)O[C@H](c2ccccc2Cl)[C@@H](COS(N)(=O)=O)O1 [Example 1, ((4R,5R)-5-(2-chlorophenyl)-2,2-dimethyl-1,3-dioxolan-4-yl)methyl sulfamate] | 212 | 108 |  | ED50 (male mice (ICR) [2]; [5]): 96.7 mg/kg
2 | CC1(C)O[C@@H](COS(N)(=O)=O)[C@H](c2ccccc2Cl)O1 [Example 2, ((4S,5S)-5-(2-chlorophenyl)-2,2-dimethyl-1,3-dioxolan-4-yl)methyl sulfamate] | 211 | 73.6 |  | ED50 (male mice (ICR) [2]; [5]): 81.4 mg/kg
3 | CC1(C)OC(COS(N)(=O)=O)C(c2ccccc2Cl)O1 (centres unmarked) [Example 3, (5-(2-chlorophenyl)-2,2-dimethyl-1,3-dioxolan-4-yl)methyl sulfamate] |  | 99.2 |  | ED50 (male mice (ICR) [1]; ED50 vs vehicle only (100%), determined at 0.25 h (time of maximum effect)): 205 mg/kg; ED50 (male mice (ICR) [2]; determined at 1 h (time of maximum effect)): 116 mg/kg
4 | CC1(C)OC(COS(N)(=O)=O)C(c2ccccc2Cl)O1 (centres unmarked) [Example 4, (5-(2-chlorophenyl)-2,2-dimethyl-1,3-dioxolan-4-yl)methyl sulfamate] |  |  | 200 (56.5%) | Wire suspension, percentage compared to the vehicle only (100%) (male mice (ICR) [2]): 100 (41.3%); Fixed rotarod, percentage of residence time compared to the vehicle only (100%) (male mice (ICR) [3]; dose 100 (unit not given)): 100 (76.6%)
5 | CC1O[C@@H](COS(N)(=O)=O)[C@H](c2ccccc2Cl)O1 (stereo partly drawn) [Example 6, ((4S,5S)-5-(2-chlorophenyl)-2-methyl-1,3-dioxolan-4-yl)methyl sulfamate] |  |  | 200 (44.8%) | Wire suspension, percentage compared to the vehicle only (100%) (male mice (ICR) [2]): 100 (70.0%); Fixed rotarod, percentage of residence time compared to the vehicle only (100%) (male mice (ICR) [3]; dose 100 (unit not given)): 100 (50.4%)
6 | CC1(C)O[C@H](c2ccccc2F)[C@@H](COS(N)(=O)=O)O1 [Example 15, ((4R,5R)-5-(2-fluorophenyl)-2,2-dimethyl-1,3-dioxolan-4-yl)methyl sulfamate] |  |  |  | Fixed rotarod, percentage of residence time compared to the vehicle only (100%) (male mice (ICR) [3]; dose 140 (unit not given)): 140(22.7%)
7 | CC1(C)O[C@@H](COS(N)(=O)=O)[C@H](c2ccccc2F)O1 [Example 16, ((4S,5S)-5-(2-fluorophenyl)-2,2-dimethyl-1,3-dioxolan-4-yl)methyl sulfamate] | 161 |  |  | ED50 (male mice (ICR) [2]; [5]): 99.1 mg/kg
8 | CC1(C)O[C@@H](COS(N)(=O)=O)[C@H](c2ccccc2I)O1 [Example 28, ((4S,5S)-5-(2-iodophenyl)-2,2-dimethyl-1,3-dioxolan-4-yl)methyl sulfamate] | 261 | 102 |  | Wire suspension, percentage compared to the vehicle only (100%) (male mice (ICR) [2]): 100(66.8%)
9 | NS(=O)(=O)OC[C@H]1OC2(CCCCC2)O[C@@H]1Cc1ccccc1Cl [Example 152, ((2R,3R)-3-(2-chlorobenzyl)-1,4-dioxaspiro[4,5]decan-2-yl)methyl sulfamate] |  |  | 200 (77.2%) | 
10 | CC1(C)O[C@@H](CCOS(N)(=O)=O)[C@H](c2ccccc2Cl)O1 [Example 154, ((4S,5S)-5-(2-chlorophenyl)-2,2-dimethyl-1,3-dioxolan-4-yl)ethyl sulfamate] |  |  | 200 (70.4%) | 
11 | CCC1(CC)O[C@@H](CCOS(N)(=O)=O)[C@H](c2ccccc2Cl)O1 [Example 156, 2-((4S,5S)-5-(2-chlorophenyl)-2,2-diethyl-1,3-dioxolan-4-yl)ethyl sulfamate] |  |  | 200 (73.2%) | 
12 | NS(=O)(=O)OCC[C@@H]1OC2(CCCC2)O[C@H]1c1ccccc1Cl [Example 158, 2-((2S,3S)-3-(2-chlorophenyl)-1,4-dioxaspiro[4,4]nonan-2-yl)ethyl sulfamate] |  |  | 200 (74.2%) | 
13 | NS(=O)(=O)OCC[C@@H]1OC2(CCCCC2)O[C@H]1c1ccccc1Cl [Example 160, 2-((2S,3S)-3-(2-chlorophenyl)-1,4-dioxaspiro[4,5]decan-2-yl)ethyl sulfamate] |  |  | 200 (86.8%) | 
